In brackets after ≈: the same amount, converted by molar mass.
Key:
Type in all cases: physicochemical
[1] = Solubility in the amide-based surfactant DMDA (Met10u)
Solubility in water = test: Solubility in water
[2] = Thermal stability (decarboxylation) of CBDA; details: in Met10u solution
[3] = Solubility of CBDA in mineral oil; details: oil or lipid, under certain conditions

SMILES: C=C(C)[C@@H]1CCC(C)=C[C@H]1c1c(O)cc(CCCCC)c(C(=O)O)c1O [CBDA, Δ(9)-tetrahydrocannabidiolic acid]
- solubility of CBDA in Met10u ([1]; at 0 C): 1%
- solubility of CBDA in Met10u ([1]; at 60 C): 100%
- solubility in DMDA ([1]; at 70 C): over 1000 mg/ml DMDA
- solubility of CBDA in water (Solubility in water; temperature of 4 degrees Celsius or lower, pH 4 or lower): below 20 micrograms per milliliter
- solubility of CBDA in water (Solubility in water; temperature of 70 degrees Celsius or higher, pH of 10 or higher): over 20 milligrams per milliliter
- temperature at which CBDA begins to lose its carboxylic moiety (decarboxylation) and become CBD [2]: at least 130 C
- solubility [3]: ~6000 µg/mL (≈ 16.7 mM)

Reference: patent publication US12264296B2, “Compositions that contain lipophilic plant material and surfactant, and related methods” (priority 2020, dated 2025)
